{"source": "patent US9968582B2", "about": "“Use of a benzoate containing composition in urea cycle disorders and neurodegenerative disorders” (Rush University Medical Center, priority 2014, dated 2018)", "key": {"female SJL/J mice": {"tested_on": "female SJL/J mice", "assay": "Adoptively-transferred RR-EAE, clinical symptoms", "type": "in vivo", "conditions": "for clinical symptoms (mean clinical score): FIG. 1A"}, "encephalitogenic T cells": {"tested_on": "encephalitogenic T cells", "assay": "Generation of encephalitogenic T cells in GTB-treated donor mice, adoptive transfer", "type": "in vivo", "conditions": "donor mice treated with GTB 50 mg/kg body wt/d orally from day of MBP immunization; vs untreated or vehicle-treated donors; FIG. 2"}, "[1]": {"tested_on": "dopamine (DA) in the striata", "assay": "MPTP mouse model of PD, HPLC of striatal dopamine", "type": "in vivo, mice", "conditions": "FIG. 10", "protocol": "Six- to eight-week old C57BL/6 mice were purchased from Harlan (Indianapolis, Ind.). For acute MPTP intoxication, mice received four intraperitoneal (i.p.) injections of MPTP-HCl (18 mg/kg of free base; Sigma Chemical Co., St. Louis, Mo.) in saline at 2-h intervals. Control animals received only saline.\nGTB was mixed in 0.5% methylcellulose (MC) and from 3 h after the last injection of MPTP, mice were gavaged 100 μL GTB-mixed MC once daily using gavage needle. Therefore, control MPTP mice received only MC as vehicle.\nStriatal level of dopamine was quantified in Complete Stand-Alone HPLC-ECD System EiCOMHTEC-500 (JM Science Inc., Grand Island, N.Y.). Briefly, mice were sacrificed by cervical dislocation after 7 days of MPTP intoxication and their striata were collected and immediately frozen in dry ice and stored at −80° C. until analysis. On the day of the analysis, tissues were sonicated in 0.2M perchloric acid containing isoproterenol and resulting homogenates were centrifuged at 20,000×g for 15 min at 4 C. After pH adjustment and filtration, 10 μl of supernatant was injected onto an Eicompak SC-3ODS column (Complete Stand-Alone HPLC-ECD System EiCOMHTEC-500 from JM Science Inc., Grand Island, N.Y.) and analyzed following the manufacturer's protocol.\nNext, to determine whether GTB protects against biochemical deficits caused by MPTP, the inventor quantified levels of dopamine (DA) in the striata 7 days after the MPTP treatment. As evident from FIG. 10, MPTP intoxication led to about 75% decrease in striatal DA compared to striata of saline-injected control mice."}}, "data": [{"smiles": "O=C(OCC(COC(=O)c1ccccc1)OC(=O)c1ccccc1)c1ccccc1", "note": "[GTB, glyceryl tribenzoate]", "values": [{"measurement": "clinical symptoms (mean clinical score)", "setting": "female SJL/J mice; GTB 25 mg/kg body wt/d by gavage once daily from 8 dpt", "result": "significantly inhibited clinical symptoms"}, {"measurement": "clinical symptoms (mean clinical score)", "setting": "female SJL/J mice; GTB 50 mg/kg body wt/d by gavage from 8 dpt, acute and chronic phases", "result": "dramatic inhibition of clinical symptoms"}, {"measurement": "clinical symptoms (mean clinical score)", "setting": "female SJL/J mice; GTB 100 mg/kg body wt/d by gavage from 8 dpt", "result": "less potent than either 50 mg/kg body wt/d"}, {"measurement": "clinical symptoms of adoptively-transferred RR-EAE", "setting": "female SJL/J mice; GTB treatment, TGF-β blocking experiment, FIG. 8", "result": "ameliorated clinical symptoms"}, {"measurement": "dose that significantly suppressed clinical symptoms of EAE", "setting": "female SJL/J mice; dose-dependent study, oral GTB", "result": "≥ 25", "unit": "mg/kg body wt/d"}, {"measurement": "clinical symptoms and disease severity of recipient mice", "setting": "encephalitogenic T cells", "result": "significantly reduced clinical symptoms and disease severity"}, {"measurement": "decrease in striatal dopamine", "setting": "[1]; GTB 50 mg/kg body wt/d in MPTP-intoxicated mice, MPTP alone about 75% decrease", "result": 25, "unit": "%"}, {"measurement": "dopamine in the striatum", "setting": "[1]; GTB in MPTP-intoxicated mice, 7 days after MPTP", "result": "dose-dependently protected dopamine"}]}]}
